Assay results as given in the NIST ThermoML archive (doi:10.1016/j.jct.2016.09.040).
± gives the expanded uncertainty stated by the source.

Assay: mn = molality of the nth substance listed, in mol/kg
Details: 75 kPa, Liquid; for viscosity: Capillary tube (Ostwald / Ubbelohde) method; for speed of sound: Frequency=3 MHz, Sing-around technique in a fixed-path interferometer; for mass density: Vibrating tube method

CCC(N)C(=O)O (stereo not drawn) [(.+-.)-α-aminobutyric acid] + O
Details	mass density [kg/m3]	speed of sound [m/s]	viscosity [mPa·s]
293.15 K, m1 = 0.09999	1001.01 ± 0.6	1490.7 ± 4.1	1.042 ± 0.031
293.15 K, m1 = 0.2999	1006.4 ± 0.6	1506.8 ± 4.1	1.109 ± 0.031
293.15 K, m1 = 0.4999	1011.57 ± 0.6	1522.6 ± 4.1	1.181 ± 0.031
293.15 K, m1 = 0.7	1016.56 ± 0.6	1538.5 ± 4.1	1.266 ± 0.031
293.15 K, m1 = 0.9001	1021.37 ± 0.6	1554.2 ± 4.1	1.358 ± 0.031
293.15 K, m1 = 1	1023.7 ± 0.6	1561.8 ± 4.1	1.416 ± 0.031
298.15 K, m1 = 0.09999	999.805 ± 0.6	1504.7 ± 4.1	0.905 ± 0.03
298.15 K, m1 = 0.2999	1005.12 ± 0.6	1519.9 ± 4.1	0.97 ± 0.031
298.15 K, m1 = 0.4999	1010.25 ± 0.6	1535.1 ± 4.1	1.057 ± 0.031
298.15 K, m1 = 0.7	1015.2 ± 0.6	1550 ± 4.1	1.121 ± 0.031
298.15 K, m1 = 0.9001	1019.98 ± 0.6	1565.1 ± 4.1	1.199 ± 0.031
298.15 K, m1 = 1	1022.3 ± 0.6	1572.4 ± 4.1	1.243 ± 0.031
303.15 K, m1 = 0.09999	998.37 ± 0.6	1516.8 ± 4.1	0.813 ± 0.03
303.15 K, m1 = 0.2999	1003.66 ± 0.6	1531.3 ± 4.1	0.869 ± 0.03
303.15 K, m1 = 0.4999	1008.75 ± 0.6	1545.8 ± 4.1	0.93 ± 0.03
303.15 K, m1 = 0.7	1013.66 ± 0.6	1560 ± 4.1	0.997 ± 0.031
303.15 K, m1 = 0.9001	1018.4 ± 0.6	1574.5 ± 4.1	1.061 ± 0.031
303.15 K, m1 = 1	1020.7 ± 0.6	1581.7 ± 4.1	1.097 ± 0.031
308.15 K, m1 = 0.09999	996.759 ± 0.6	1526.9 ± 4.1	0.731 ± 0.03
308.15 K, m1 = 0.2999	1002 ± 0.6	1540.8 ± 4.1	0.781 ± 0.03
308.15 K, m1 = 0.4999	1007.05 ± 0.6	1554.7 ± 4.1	0.834 ± 0.03
308.15 K, m1 = 0.7	1011.92 ± 0.6	1568.6 ± 4.1	0.891 ± 0.03
308.15 K, m1 = 0.9001	1016.62 ± 0.6	1582.5 ± 4.1	0.949 ± 0.031
308.15 K, m1 = 1	1018.9 ± 0.6	1589.5 ± 4.1	0.979 ± 0.031
313.15 K, m1 = 0.09999	994.9 ± 0.6	1535.7 ± 4.1	0.661 ± 0.03
313.15 K, m1 = 0.2999	999.99 ± 0.6	1548.7 ± 4.1	0.706 ± 0.03
313.15 K, m1 = 0.4999	1004.83 ± 0.6	1561.8 ± 4.1	0.754 ± 0.03
313.15 K, m1 = 0.7	1009.41 ± 0.6	1574.7 ± 4.1	0.804 ± 0.03
313.15 K, m1 = 0.9001	1013.72 ± 0.6	1588 ± 4.1	0.853 ± 0.03
313.15 K, m1 = 1	1015.78 ± 0.6	1595.1 ± 4.1	0.895 ± 0.03
